In patent US10294207B2, “Pyrazole derivatives as TNIK, IKKϵ and TBK1 inhibitor and pharmaceutical composition comprising same” (GREEN CROSS CORPORATION, priority 2015, dated 2019):

How the values were obtained:
[1] = biological target: T1, TBK1 (Homo sapiens, UniProt Q9UHD2); assay: TBK1 inhibition, ADP-Glo Kinase Assay; assay type: biochemical; conditions: luminometer
T1 construct: purchased Promega V3991
T1 sequence (Q9UHD2 1-729): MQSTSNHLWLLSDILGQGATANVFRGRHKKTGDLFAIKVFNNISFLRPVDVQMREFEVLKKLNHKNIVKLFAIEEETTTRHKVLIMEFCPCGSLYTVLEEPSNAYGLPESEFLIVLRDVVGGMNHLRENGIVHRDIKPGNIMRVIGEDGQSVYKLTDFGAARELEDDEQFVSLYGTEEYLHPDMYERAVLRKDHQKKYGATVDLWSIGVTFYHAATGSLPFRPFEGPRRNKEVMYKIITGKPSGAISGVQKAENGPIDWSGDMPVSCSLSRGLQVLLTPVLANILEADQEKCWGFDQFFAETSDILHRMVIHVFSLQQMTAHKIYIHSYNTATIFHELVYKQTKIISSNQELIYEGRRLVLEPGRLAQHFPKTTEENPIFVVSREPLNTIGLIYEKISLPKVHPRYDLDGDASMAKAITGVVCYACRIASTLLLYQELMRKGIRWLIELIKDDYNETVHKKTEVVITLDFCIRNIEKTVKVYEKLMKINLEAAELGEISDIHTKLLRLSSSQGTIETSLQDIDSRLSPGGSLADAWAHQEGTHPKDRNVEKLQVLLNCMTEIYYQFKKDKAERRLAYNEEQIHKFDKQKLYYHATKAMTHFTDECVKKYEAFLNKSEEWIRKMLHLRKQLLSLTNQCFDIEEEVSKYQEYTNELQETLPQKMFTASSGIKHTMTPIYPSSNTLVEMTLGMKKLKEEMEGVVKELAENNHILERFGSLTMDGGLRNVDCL
How it was run: (§1)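 ADP-Glo luminescence reported ADP produced by each kinase, following the kit protocol. Reactions used commercial kinase enzyme systems in buffer of 40 mM Tris (pH 7.5), 20 mM MgCl2 and 0.1 mg/mL BSA.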

[2] = biological target: T2, IKKε (Homo sapiens, UniProt Q14164); assay: IKKε inhibition, ADP-Glo Kinase Assay; assay type: biochemical; conditions: luminometer
T2 construct: purchased Invitrogen PR8031B
T2 sequence (Q14164 1-716): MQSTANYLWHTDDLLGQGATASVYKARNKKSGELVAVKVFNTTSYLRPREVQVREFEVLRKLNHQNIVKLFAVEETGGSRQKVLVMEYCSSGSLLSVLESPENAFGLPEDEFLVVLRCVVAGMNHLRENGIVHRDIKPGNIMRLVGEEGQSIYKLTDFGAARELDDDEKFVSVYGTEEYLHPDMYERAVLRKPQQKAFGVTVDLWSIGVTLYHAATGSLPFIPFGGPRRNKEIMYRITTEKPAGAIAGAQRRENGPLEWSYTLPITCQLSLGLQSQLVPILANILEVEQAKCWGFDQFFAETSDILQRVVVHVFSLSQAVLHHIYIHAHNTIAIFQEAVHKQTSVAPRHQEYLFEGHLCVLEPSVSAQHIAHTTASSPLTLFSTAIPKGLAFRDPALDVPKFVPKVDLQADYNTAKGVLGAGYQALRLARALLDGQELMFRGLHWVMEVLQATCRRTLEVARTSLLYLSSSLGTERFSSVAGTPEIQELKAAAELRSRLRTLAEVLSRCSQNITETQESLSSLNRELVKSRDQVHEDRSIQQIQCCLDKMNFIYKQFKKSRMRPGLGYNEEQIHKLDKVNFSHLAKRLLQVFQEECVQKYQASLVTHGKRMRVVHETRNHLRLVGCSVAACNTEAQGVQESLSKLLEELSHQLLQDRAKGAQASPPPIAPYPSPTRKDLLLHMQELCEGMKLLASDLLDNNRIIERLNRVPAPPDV
How it was run: as §1

`CN1CCN(c2ccc(C(=O)Nc3n[nH]c4ccc(C(=O)NC(c5ccccn5)C5CC5)cc34)cc2)CC1` (stereo not shown) [Example 140, N-(Cyclopropyl(pyridin-2-yl)methyl)-3-(4-(4-methylpiperazin-1-yl)benzamido)-1H-indazole-5-carboxamide] was tested, and the IC50 [1] was 0.084 µM and the IC50 [2] was 0.27 µM.

With `CCC(NC(=O)c1ccc2[nH]nc(NC(=O)c3ccc(N4CC(C)NC(C)C4)cc3)c2c1)c1cccs1` (stereo not shown) [Example 95, 3-(4-(3,5-dimethylpiperazin-1-yl)benzamido)-N-(1-(thiophen-2-yl)propyl)-1H-indazole-5-carboxamide 2,2,2-trifluoroacetate] the IC50 [1] was 0.0028 µM and the IC50 [2] was 0.021 µM.

`O=C(Nc1n[nH]c2ccc(C(=O)NC(c3ccccn3)C3CC3)cc12)c1ccc(N2CCOCC2)cc1` (stereo not shown) [Example 139, N-(Cyclopropyl(pyridin-2-yl)methyl)-3-(4-morpholinobenzamido)-1H-indazole-5-carboxamide] gave an IC50 [1] of 0.1 µM and an IC50 [2] of 0.34 µM.

With `CN1CCN(c2ccc(C(=O)Nc3n[nH]c4ccc(C(=O)NCc5ncon5)cc34)cc2)CC1` [Example 118] the IC50 [1] was 0.3 µM and the IC50 [2] was 1.96 µM.

For `CCC(NC(=O)c1ccc2[nH]nc(NC(=O)c3ccc(N4CCC(O)CC4)cc3)c2c1)c1cccs1` (stereo not shown) [Example 108, 3-(4-(4-Hydroxypiperidin-1-yl)benzamido)-N-(1-(thiophen-2-yl)propyl)-1H-indazole-5-carboxamide], the IC50 [1] was 0.0028 µM and the IC50 [2] was 0.015 µM.

`CC[C@@H](NC(=O)c1ccc2[nH]nc(NC(=O)c3ccc(N4CCN(C)CC4)cc3)c2c1)c1ccccc1` [Example 191, (R)-3-(4-(4-Methylpiperazin-1-yl)benzamido)-N-(1-phenylpropyl)-1H-indazole-5-carboxamide] was tested, and the IC50 [1] was 0.0013 µM and the IC50 [2] was 0.014 µM.

`CN1CCN(c2ccc(C(=O)Nc3n[nH]c4ccc(C(=O)NCC5CCCC5)cc34)cc2)CC1` [Example 90, N-(Cyclopentylmethyl)-3-(4-(4-methylpiperazin-1-yl)benzamido)-1H-indazole-5-carboxamide 2,2,2-trifluoroacetate] showed an IC50 [1] of 0.013 µM and an IC50 [2] of 0.21 µM.

In the case of `CN1CCN(c2ccc(C(=O)Nc3n[nH]c4ccc(C(=O)NCc5ccccc5)cc34)cc2)CC1` [Example 40, N-Benzyl-3-(4-(4-methylpiperazin-1-yl)benzamido)-1H-indazole-5-carboxamide], the IC50 [1] is reported as 0.00094 µM and the IC50 [2] is reported as 0.0089 µM.

In the case of `O=C(Nc1n[nH]c2ccc(C(=O)NC(c3cccnc3)C3CC3)cc12)c1ccc(N2CCOCC2)cc1` (stereo not shown) [Example 142, N-(Cyclopropyl(pyridin-3-yl)methyl)-3-(4-morpholinobenzamido)-1H-indazole-5-carboxamide], the IC50 [1] is reported as 0.067 µM and the IC50 [2] is reported as 0.096 µM.

Compound `CCC[C@@H](NC(=O)c1ccc2[nH]nc(NC(=O)c3ccc(N4CCN(C)CC4)cc3)c2c1)c1ccccc1` [Example 194, (R)-3-(4-(4-Methylpiperazin-1-yl)benzamido)-N-(1-phenylbutyl)-1H-indazole-5-carboxamide] has an IC50 [1] of 0.0075 µM and an IC50 [2] of 0.038 µM.

In the case of `CCC(NC(=O)c1ccc2[nH]nc(NC(=O)c3ccc(N4CCN[C@@H](C)C4)cc3)c2c1)c1cccs1` (stereo partly drawn) [Example 97, 3-(4-((S)-3-Methylpiperazin-1-yl)benzamido)-N-(1-(thiophen-2-yl)propyl)-1H-indazole-5-carboxamide 2,2,2-trifluoroacetate], the IC50 [1] is reported as 0.0028 µM and the IC50 [2] is reported as 0.016 µM.

`O=C(Nc1n[nH]c2ccc(C(=O)NC(c3cccs3)C3CC3)cc12)c1ccc(N2CCNCC2)cc1` (stereo not shown) [Example 126, N-(Cyclopropyl(thiophen-2-yl)methyl)-3-(4-(piperazin-1-yl)benzamido)-1H-indazole-5-carboxamide] was tested, and the IC50 [1] was 0.019 µM and the IC50 [2] was 0.013 µM.

`O=C(NCc1cccs1)c1ccc2[nH]nc(NC(=O)c3ccc(NCCN4CCCC4)cc3)c2c1` [Example 152, 3-(4-((2-(Pyrrolidin-1-yl)ethyl)amino)benzamido)-N-(thiophen-2-ylmethyl)-1H-indazole-5-carboxamide] gave an IC50 [1] of 0.004 µM and an IC50 [2] of 0.092 µM.

Compound `COc1ccc(C(=O)Nc2n[nH]c3ccc(C(=O)NCc4cccs4)cc23)cc1` [Example 3, 3-(4-Methoxybenzamido)-N-(thiophen-2-ylmethyl)-1H-indazole-5-carboxamide] has an IC50 [1] of 0.038 µM and an IC50 [2] of 0.11 µM.

`CN1CCN(c2ccc(C(=O)Nc3n[nH]c4ccc(NC(=O)Cc5cccs5)cc34)cc2)CC1` [Example 141, 4-(4-Methylpiperazin-1-yl)-N-(5-(2-(thiophen-2-yl)acetamido)-1H-indazol-3-yl)benzamide] gave an IC50 [1] of 0.024 µM and an IC50 [2] of 0.38 µM.

`O=C(Nc1n[nH]c2ccc(C(=O)NC3(c4ccccn4)CC3)cc12)c1ccc(F)cc1` [Example 216, 3-(4-Fluorobenzamido)-N-(1-(pyridin-2-yl)cyclopropyl)-1H-indazole-5-carboxamide] showed an IC50 [1] of 3.7 µM and an IC50 [2] of 5.25 µM.

For `CC(C)CC(NC(=O)c1ccc2[nH]nc(NC(=O)c3ccc(F)cc3)c2c1)c1cccs1` (stereo not shown) [Example 33, 3-(4-Fluorobenzamido)-N-(3-methyl-1-(thiophen-2-yl)butyl)-1H-indazole-5-carboxamide], the IC50 [1] was 4.69 µM and the IC50 [2] was 6.36 µM.

Work on `Cc1ccc(CNC(=O)c2ccc3[nH]nc(NC(=O)c4ccc(F)cc4)c3c2)s1` [Example 19, 3-(4-Fluorobenzamido)-N-((5-methylthiophen-2-yl)methyl)-1H-indazole-5-carboxamide] yielded an IC50 [1] of 0.49 µM and an IC50 [2] of 2.91 µM.

With `O=C(NCc1ccc(C(F)(F)F)cc1)c1ccc2[nH]nc(NC(=O)c3ccc(F)cc3)c2c1` [Example 21, 3-(4-Fluorobenzamido)-N-(4-(trifluoromethyl)benzyl)-1H-indazole-5-carboxamide] the IC50 [1] was greater than 10 µM and the IC50 [2] was greater than 10 µM.

In the case of `CN1CCC(Nc2ccc(C(=O)Nc3n[nH]c4ccc(C(=O)NCc5cccs5)cc34)cc2)CC1` [Example 213], the IC50 [1] is reported as 0.0044 µM and the IC50 [2] is reported as 0.069 µM.

For `Cc1noc(CNC(=O)c2ccc3[nH]nc(NC(=O)c4ccc(N5CCOCC5)cc4)c3c2)n1` [Example 100, N-((3-Methyl-1,2,4-oxadiazol-5-yl)methyl)-3-(4-morpholinobenzamido)-1H-indazole-5-carboxamide 2,2,2-trifluoroacetate], the IC50 [1] was 0.22 µM and the IC50 [2] was 0.95 µM.

`CNCCN(C)c1ccc(C(=O)Nc2n[nH]c3ccc(C(=O)NCc4cccs4)cc23)cc1` [Example 155, 3-(4-(Methyl(2-(methylamino)ethyl)amino)benzamido)-N-(thiophen-2-ylmethyl)-1H-indazole-5-carboxamide] was tested, and the IC50 [1] was 0.0064 µM and the IC50 [2] was 0.094 µM.

`O=C(NCC1CCCCC1)c1ccc2[nH]nc(NC(=O)c3ccc(N4CCOCC4)cc3)c2c1` [Example 88, N-(Cyclohexylmethyl)-3-(4-morpholinobenzamido)-1H-indazole-5-carboxamide] showed an IC50 [1] of 0.02 µM and an IC50 [2] of 0.11 µM.

`CCC(NC(=O)c1ccc2[nH]nc(NC(=O)c3ccc(N4CCN(C)CC4)cc3)c2c1)c1ccccc1` (stereo not shown) [Example 187, 3-(4-(4-Methylpiperazin-1-yl)benzamido)-N-(1-phenylpropyl)-1H-indazole-5-carboxamide] gave an IC50 [1] of 0.0035 µM and an IC50 [2] of 0.018 µM.

`O=C(NCc1ccco1)c1ccc2[nH]nc(NC(=O)c3ccc(N4CCOCC4)cc3)c2c1` [Example 50, N-(Furan-2-ylmethyl)-3-(4-morpholinobenzamido)-1H-indazole-5-carboxamide] showed an IC50 [1] of 0.0058 µM and an IC50 [2] of 0.037 µM.

`CC(NC(=O)c1ccc2[nH]nc(NC(=O)c3ccc(N4C[C@@H](C)N[C@@H](C)C4)cc3)c2c1)c1ccccc1` (stereo partly drawn) [Example 186, 3-(4-((3R,5S)-3,5-Dimethylpiperazin-1-yl)benzamido)-N-(1-phenylethyl)-1H-indazole-5-carboxamide] was tested, and the IC50 [1] was 0.0027 µM and the IC50 [2] was 0.012 µM.
